These results are taken from patent US5591728A, “New phosphonic acid compounds” (Adir Et Compagnie, priority 1993, dated 1997).

Test [1] relates to big ET-1-induced pressor responses (inhibition of ECE). The test can be described thus: In vivo study on pithed rats: big ET-1-induced pressor response. Further details: species or system Sprague-Dawley rats. Particulars: for IC50 with respect to big ET-1: big ET-1 1 nmol/kg injection, product given by infusion. The text has this:
(§1) Sprague-Dawley rats (300400 g) are anesthetized with ether. The animals are then pithed and placed under artificial respiration. The vagus nerves are sectioned and the carotid arteries ligated. A catheter is introduced into one of the carotid arteries to measure arterial blood pressure. A second catheter is introduced into the vein of the penis to enable substances to be injected.
After a stabilization period, the animals receive an injection of endothelin-1 (ET-1; 0.5 nmol/kg) or its precursor, big endothelin-1 (big ET-1; 1 nmol/kg).

In test [2] the test system is pressor responses obtained with big ET-1. The test can be described thus: In vitro study on perfused isolated rat kidney: pressor response to big ET-1. Further details: species or system male Wistar rats. Particulars: big ET-1 0.4 nmol bolus. On the procedure: The studies are performed on kidneys prepared from male Wistar rats (300400 g). The rats are anesthetized with pentobarbitone sodium (50 mg/kg i.p.) and the left kidney is prepared so as to permit perfusion with Tyrode solution. The variations in perfusion pressure are measured continuously. The perfusion flow rate is 6 ml/min. After stabilization, a bolus injection of ET- 1 (0.03 nmol) or of big ET-1 (0.4 nmol) is performed and the pressor response is recorded. […] The IC50 values of the products are calculated and the results are given in μM.

The subject of test [3] is ET-1-induced hypertension. The test can be described thus: In vivo study on pithed rats: ET-1-induced hypertension. Further details: species or system Sprague-Dawley rats. Particulars: ET-1 0.5 nmol/kg.
Excerpt: as §1
After a stabilization period, the animals receive an injection of endothelin-1 (ET-1; 0.5 nmol/kg) or its precursor, big endothelin-1 (big ET-1; 1 nmol/kg). The pressor responses are recorded and, after the pressure has returned to its initial value (1 h 30 min to 2 hours), a second injection of ET-1 or of big ET-1 is given in the presence or absence of an infusion of a product of the invention or of the reference substance, phosphoramidon. Phosphoramidon and the products of the invention had no effect on ET-1-induced hypertension.

Where a name gives a salt, the structure may show the parent alone.

With `CC(C)C[C@H](NP(=O)(O)OC(CO)CO)C(=O)N[C@@H](Cc1c[nH]c2ccccc12)C(=O)O` [Example 8, N-{[(1-Hydroxymethyl-2-hydroxy)ethoxy]hydroxyphosphinyl]-(S)Leu-(S) Trp-OH dilithium salt], the “IC50 with respect to big ET-1” value in test [1] turned out to be 480 µg/kg/min.
On the same count and under the same terms, under `CC(C)C[C@H](NP(=O)(O)OCCC(O)CO)C(=O)N[C@@H](Cc1c[nH]c2ccccc12)C(=O)O` (stereo partly drawn) [Example 12, N-[(3,4-Dihydroxybutoxy)hydroxyphosphinyl]-(S)Leu-(S) Trp-OH dilithium salt] stands 140 µg/kg/min.
For orientation: IC50 means the midpoint of a concentration-inhibition curve. A lower IC50 goes with greater potency. For the compound `CCOC(=O)[C@H](Cc1c[nH]c2ccccc12)NC(=O)[C@H](CC(C)C)NP(=O)(O)OCCO` [Example 3, N-[(2-Hydroxyethoxy)hydroxyphosphinyl]-(S)Leu-(S)Trp-OEt disodium salt], in test [1], the “IC50 with respect to big ET-1” value worked out at 280 µg/kg/min. In addition, the IC50 in test [2] was 5 µM.
For `CCOC(=O)[C@H](Cc1c[nH]c2ccccc12)NC(=O)[C@H](CC(C)C)NP(=O)(O)OCCCN` [Example 9, N-[(3-Aminopropoxy)hydroxyphosphinyl]-(S)Leu-(S)Trp-OEt lithium salt], in test [1], the “IC50 with respect to big ET-1” value was 200 µg/kg/min.
Take `CC(C)C[C@H](NP(=O)(O)O[C@@H]1O[C@@H](C)[C@H](O)[C@@H](O)[C@H]1O)C(=O)N[C@@H](Cc1c[nH]c2ccccc12)C(=O)[O-].CC(C)C[C@H](NP(=O)(O)O[C@@H]1O[C@@H](C)[C@H](O)[C@@H](O)[C@H]1O)C(=O)N[C@@H](Cc1c[nH]c2ccccc12)C(=O)[O-].[Na+].[Na+]` [Phosphoramidon, N-[α-(S)-(rhamnopyranosyloxy) hydroxyphosphinyl]-(S)leu-(S) Trp-OH disodium salt, reference compound]: the “IC50 with respect to big ET-1” value in test [1] was 125 µg/kg/min. For the same compound, the “inhibition of big ET-1-induced pressor responses” value in test [1] (big ET-1 1 nmol/kg, in words) is on record as “inhibited big ET-1-induced pressor responses in a dose-dependent manner”. In test [2], this compound came in with an IC50 of 0.9 µM. Besides, the “inhibition of pressor responses obtained with big ET-1” value in test [2] (in words) is “substantially inhibited”. Moreover, the “effect on ET-1-induced hypertension” value in test [3] is “no effect”.
Turning to `CC(C)C[C@H](NP(=O)(O)OCC(O)CO)C(=O)N[C@@H](Cc1c[nH]c2ccccc12)C(=O)O` (stereo partly drawn) [Example 1, N-[(2,3-Dihydroxypropoxy)hydroxyphosphinyl]-(S)Leu-(S) Trp-OH disodium salt], the “IC50 with respect to big ET-1” value in test [1] came out at 100 µg/kg/min. Also, the IC50 in test [2] stood at 4 µM.
For `CC(C)C[C@H](NP(=O)(O)OCCO)C(=O)N[C@@H](Cc1c[nH]c2ccccc12)C(=O)O` [Example 4, N-[(2-Hydroxyethoxy)hydroxyphosphinyl]-(S)Leu-(S)Trp-OH disodium salt], in that order: 430 µg/kg/min and 7 µM.
Take “N-[((R)-2,3-Dihydroxypropoxy)hydroxyphosphinyl]-(S)Leu-(S)Trp-OH dilithium salt [Example 10]”: the “IC50 with respect to big ET-1” value in test [1] was determined as 230 µg/kg/min.
The same measure, in the same setting: with “N-[((S)-2,3-Dihydroxypropoxy)hydroxyphosphinyl]-(S)Leu-(S)Trp-OH dilithium salt [Example 11]” the figure was 100 µg/kg/min.
